Measurements taken from the supplement of paper PMC10307832.

Assays:
Assay in all cases: relative viability (nuclei count vs DMSO), 5 days (fraction); higher = more cells survive
[1] = compound: COc1cc2nc(N3CCCN(C)CC3)nc(NC3CCN(Cc4ccccc4)CC3)c2cc1OC + CC(C)C[C@H](NC(=O)[C@H](Cc1ccccc1)NC(=O)c1cnccn1)B(O)O [Bortezomib] (partner 0.002 µM)
In short: (§1)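 Lung cancer cell lines in 1536-well plates got either a single drug or a fixed anchor-drug dose together with five library-drug doses (not always all listed) in √10 steps, by pin tool, on the day after seeding. Nuclei were counted after 5 days, and relative viability is the treated-to-vehicle ratio of nuclei counts. Values are medians of duplicate plates.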

[2] = compound: COc1cc2nc(N3CCCN(C)CC3)nc(NC3CCN(Cc4ccccc4)CC3)c2cc1OC + CS(=O)(=O)CCNCc1ccc(-c2ccc3ncnc(Nc4ccc(OCc5cccc(F)c5)c(Cl)c4)c3c2)o1 [Lapatinib] (partner 2 µM)
In short: as §1

[3] = compound: COc1cc2nc(N3CCCN(C)CC3)nc(NC3CCN(Cc4ccccc4)CC3)c2cc1OC + C[C@]1(O)C[C@@H](c2nc(-c3ccc4ccc(-c5ccccc5)nc4c3)c3c(N)nccn32)C1 [Linsitinib] (partner 1 µM)
In short: as §1

[4] = compound: COc1cc2nc(N3CCCN(C)CC3)nc(NC3CCN(Cc4ccccc4)CC3)c2cc1OC + Cc1cc(Nc2cc(N3CCN(C)CC3)nc(Sc3ccc(NC(=O)C4CC4)cc3)n2)n[nH]1 [Tozasertib] (partner 0.1 µM)
In short: as §1

[5] = compound: COc1cc2nc(N3CCCN(C)CC3)nc(NC3CCN(Cc4ccccc4)CC3)c2cc1OC + O=C(c1cc(Cc2n[nH]c(=O)c3ccccc23)ccc1F)N1CCN(C(=O)C2CC2)CC1 [Olaparib] (partner 8 µM)
In short: as §1

| Cell Line | relative viability ([1]; first compound 0.2 µM) | relative viability ([1]; first compound 0.6325 µM) | relative viability ([1]; first compound 2 µM) | relative viability ([1]; first compound 6.325 µM) | relative viability ([2]; first compound 0.2 µM) | relative viability ([2]; first compound 0.6325 µM) | relative viability ([2]; first compound 2 µM) | relative viability ([2]; first compound 6.325 µM) | relative viability ([3]; first compound 0.2 µM) | relative viability ([3]; first compound 0.6325 µM) | relative viability ([3]; first compound 2 µM) | relative viability ([3]; first compound 6.325 µM) | relative viability ([4]; first compound 0.2 µM) | relative viability ([4]; first compound 0.6325 µM) | relative viability ([4]; first compound 2 µM) | relative viability ([4]; first compound 6.325 µM) | relative viability ([5]; first compound 0.2 µM) | relative viability ([5]; first compound 0.6325 µM) | relative viability ([5]; first compound 2 µM) | relative viability ([5]; first compound 6.325 µM) |
| --- | --- | --- | --- | --- | --- | --- | --- | --- | --- | --- | --- | --- | --- | --- | --- | --- | --- | --- | --- | --- |
| EPLC-272H | 0.897 | 0.793 | 0.918 | 0.658 | 0.947 | 1.1 | 1.03 | 0.938 | 1.25 | 1.22 | 1.02 | 1.1 | 0.247 | 0.269 | 0.344 | 0.29 | 0.738 | 0.888 | 0.767 | 0.329 |
| NCI-H2126 | 1.15 | 1.09 | 1.13 | 1.08 | 0.74 | 0.742 | 0.796 | 0.732 | 0.69 | 0.707 | 0.724 | 0.708 | 0.818 | 0.874 | 0.868 | 0.826 | 1.01 | 0.892 | 0.883 | 0.919 |
| LXF-289 | 0.98 | 0.973 | 1.03 | 0.985 | 0.854 | 0.878 | 0.886 | 0.907 | 0.956 | 0.954 | 0.98 | 0.923 | 0.184 | 0.195 | 0.205 | 0.211 | 1.03 | 1.07 | 1.12 | 1.05 |
| NCI-H2009 | 0.94 | 0.833 | 1.08 | 0.965 | 0.871 | 0.888 | 1.08 | 0.901 | 1.24 | 1.16 | 1.24 | 1.24 | 0.761 | 0.727 | 0.855 | 0.656 | 0.703 | 0.706 | 0.691 | 0.631 |
| NCI-H2405 | 0.978 | 0.987 | 1.04 | 0.971 | 1.08 | 1.08 | 1.2 | 0.885 | 0.934 | 0.975 | 0.979 | 0.809 | 0.711 | 0.696 | 0.83 | 0.74 | 0.886 | 0.847 | 0.91 | 0.883 |
| NCI-H1755 | 1 | 0.965 | 0.922 | 0.88 | 1.03 | 1.02 | 1.06 | 0.927 | 0.974 | 0.982 | 0.946 | 0.932 | 0.668 | 0.464 | 0.592 | 0.557 | 0.805 | 0.832 | 0.85 | 0.831 |
| HCC-78 | 0.511 | 0.434 | 0.535 | 0.504 | 0.704 | 1.06 | 1.03 | 0.882 | 0.427 | 0.416 | 0.482 | 0.348 | 0.388 | 0.439 | 0.314 | 0.409 | 0.944 | 0.66 | 0.787 | 0.831 |
| LOU-NH91 | 0.481 | 0.552 | 0.465 | 0.517 | 0.803 | 0.812 | 0.731 | 0.693 | 0.93 | 0.978 | 0.669 | 0.979 | 0.67 | 0.703 | 0.649 | 0.769 | 0.911 | 0.918 | 0.968 | 0.958 |
